Active and inactive are the calls of the source. The rule behind the calls is not given here.
What was measured:
[1] = system: Spinacia oleracea; experiment: Inhibition of Spinacia oleracea (spinach) chloroplast electron transport chain-mediated light-induced ATP-Pi exchange assessed as inorganic phosphate release at 200 uM treated during incubation stage
[2] = system: Spinacia oleracea; experiment: Inhibition of Spinacia oleracea (spinach) chloroplast electron transport chain-mediated rate of oxygen evolution per mg of chloroplast at 62.5 uM
[3] = molecular target: T1, Photosystem I iron-sulfur center (Spinacia oleracea) (UniProt P10098); experiment: Inhibition of Spinacia oleracea (spinach) photosystem I assessed as electron flow from ascorbate/DAD to methylviologen at >200 uM after 1 hr by polarographically
T1 sequence (whole entry): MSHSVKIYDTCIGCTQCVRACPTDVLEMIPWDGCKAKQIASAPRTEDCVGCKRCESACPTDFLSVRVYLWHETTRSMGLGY

[4] = system: Spinacia oleracea; experiment: Inhibition of Spinacia oleracea (spinach) chloroplast electron transport chain-mediated light-induced ATP-Pi exchange assessed as inorganic phosphate release at 200 uM
[5] = system: Spinacia oleracea; experiment: Inhibition of Spinacia oleracea (spinach) chloroplast electron transport chain-mediated rate of oxygen evolution per mg of chloroplast at 125 uM
[6] = system: Spinacia oleracea; experiment: Inhibition of Spinacia oleracea (spinach) chloroplast electron transport chain-mediated sulfhydryl-induced ATP-Pi exchange assessed as inorganic phosphate release at 200 uM treated during incubation stage
[7] = system: Spinacia oleracea; experiment: Inhibition of Spinacia oleracea (spinach) chloroplast electron transport chain-mediated sulfhydryl-induced ATP-Pi exchange assessed as inorganic phosphate release at 200 uM
[8] = system: Spinacia oleracea; experiment: Inhibition of Spinacia oleracea (spinach) chloroplast electron transport chain-mediated rate of oxygen evolution per mg of chloroplast at 62.5 uM in presence of 0.31 mM DTT
[9] = molecular target: Photosystem II protein D1 (Spinacia oleracea) (UniProt P69560); experiment: Inhibition of Spinacia oleracea (spinach) photosystem II assessed as light-induced re-reduction of Cyt-f at 100 uM added prior to illumination by dual wavelength spectrophotometer analysis
[10] = system: Spinacia oleracea; experiment: Inhibition of Spinacia oleracea (spinach) chloroplast electron transport chain-mediated rate of oxygen evolution per mg of chloroplast at 125 uM preincubated with DTT in dark condition for 5 min presence of 0.31 mM DTT
[11] = Inhibition of Spinacia oleracea (spinach) chloroplast electron transport chain-mediated Mg2+-ATPase activity assessed as inorganic phosphate release
[12] = system: Spinacia oleracea; experiment: Inhibition of Spinacia oleracea (spinach) chloroplast electron transport chain-mediated PMS-induced cyclic phosphorylation at 100 uM by polarographically
[13] = system: Spinacia oleracea; experiment: Inhibition of Spinacia oleracea (spinach) chloroplast electron transport chain-mediated PMS-induced cyclic phosphorylation at 25 uM […]
[14] = system: Spinacia oleracea; experiment: Inhibition of Spinacia oleracea (spinach) chloroplast electron transport chain-mediated DAD-induced cyclic phosphorylation at 50 uM by polarographically
[15] = system: Spinacia oleracea; experiment: Inhibition of Spinacia oleracea (spinach) chloroplast electron transport chain-mediated PMS-induced cyclic phosphorylation at 50 uM […]
[16] = molecular target: T2, Photosystem II protein D1 (Spinacia oleracea, UniProt P69560); experiment: Inhibition of Spinacia oleracea (spinach) photosystem II mediated noncyclic photophosphorylation assessed as 32P-orthophosphate incorporation into ATP […]
[17] = molecular target: T2, Photosystem II protein D1; experiment: Inhibition of Spinacia oleracea (spinach) photosystem II assessed as electron flow from H20 to PDOX after 1 hr by polarographically
[18] = system: Spinacia oleracea; experiment: Inhibition of Spinacia oleracea (spinach) chloroplast electron transport chain-mediated sulfhydryl-induced ATP-Pi exchange assessed as inorganic phosphate release at 200 uM treated during activation stage
[19] = system: Spinacia oleracea; experiment: Inhibition of Spinacia oleracea (spinach) chloroplast electron transport chain-mediated PMS-induced cyclic phosphorylation at 200 uM […]
[20] = system: Spinacia oleracea; experiment: Inhibition of Spinacia oleracea (spinach) chloroplast electron transport chain-mediated DAD-induced cyclic phosphorylation at 25 uM by polarographically
[21] = system: Spinacia oleracea; experiment: Inhibition of Spinacia oleracea (spinach) chloroplast electron transport chain-mediated PMS-induced cyclic phosphorylation at 10 uM by polarographically
[22] = molecular target: Photosystem II protein D1 (Spinacia oleracea) (UniProt P69560); experiment: Inhibition of Spinacia oleracea (spinach) photosystem II assessed as electron flow from H20 to PDOX at 300 uM after 1 hr by polarographically
[23] = molecular target: T1, Photosystem I iron-sulfur center (Spinacia oleracea); experiment: Inhibition of Spinacia oleracea (spinach) photosystem I assessed as light-induced oxidation of Cyt-f at 100 uM added prior to illumination by dual wavelength spectrophotometer analysis
[24] = Inhibition of Spinacia oleracea (spinach) chloroplast electron transport chain assessed as electron flow from water to ferricyanide by polarographically
[25] = system: Spinacia oleracea; experiment: Inhibition of Spinacia oleracea (spinach) chloroplast electron transport chain-mediated DAD-induced cyclic phosphorylation at 100 uM by polarographically
[26] = Inhibition of Spinacia oleracea (spinach) chloroplast electron transport chain-mediated light-induced ATP-Pi exchange assessed as inorganic phosphate release
[27] = system: Spinacia oleracea; experiment: Inhibition of Spinacia oleracea (spinach) chloroplast electron transport chain-mediated light-induced ATP-Pi exchange assessed as inorganic phosphate release at 200 uM treated during activation stage
[28] = system: Spinacia oleracea; experiment: Inhibition of Spinacia oleracea (spinach) chloroplast electron transport chain-mediated rate of oxygen evolution per mg of chloroplast at 125 uM in presence of 0.31 mM DTT
[29] = system: Spinacia oleracea; experiment: Inhibition of Spinacia oleracea (spinach) chloroplast electron transport chain-mediated DAD-induced cyclic phosphorylation at 200 uM by polarographically
[30] = Inhibition of Spinacia oleracea (spinach) chloroplast electron transport chain-mediated noncyclic photophosphorylation assessed as 32P-orthophosphate incorporation into ATP […]
[31] = Inhibition of Spinacia oleracea (spinach) chloroplast electron transport chain-mediated sulfhydryl-induced ATP-Pi exchange assessed as inorganic phosphate release
[32] = Inhibition of Spinacia oleracea (spinach) chloroplast electron transport chain-mediated PMS-induced cyclic phosphorylation […]
[33] = system: Spinacia oleracea; experiment: Inhibition of Spinacia oleracea (spinach) chloroplast electron transport chain-mediated DAD-induced cyclic phosphorylation at 10 uM by polarographically
[34] = system: Spinacia oleracea; experiment: Inhibition of Spinacia oleracea (spinach) chloroplast electron transport chain-mediated DAD-induced cyclic phosphorylation up to 200 uM by polarographically in presence of ascorbate in red light
[35] = system: Spinacia oleracea; experiment: Inhibition of Spinacia oleracea (spinach) chloroplast electron transport chain-mediated rate of oxygen evolution per mg of chloroplast at 62.5 uM preincubated with DTT in dark condition for 5 min presence of 0.31 mM DTT
[36] = molecular target: Photosystem II protein D1 (Spinacia oleracea) (UniProt P69560); experiment: Inhibition of Spinacia oleracea (spinach) photosystem II mediated noncyclic photophosphorylation assessed as 32P-orthophosphate incorporation into ATP up to 300 uM by polarographically
[37] = molecular target: T1, Photosystem I iron-sulfur center (Spinacia oleracea); experiment: Inhibition of Spinacia oleracea (spinach) photosystem I mediated noncyclic photophosphorylation assessed as 32P-orthophosphate incorporation into ATP up to 300 uM […]
[38] = molecular target: T1, Photosystem I iron-sulfur center (Spinacia oleracea); experiment: Inhibition of Spinacia oleracea (spinach) photosystem I assessed as light-induced oxidation of Cyt-f at 200 uM added prior to illumination by dual wavelength spectrophotometer analysis
[39] = Inhibition of Spinacia oleracea (spinach) chloroplast electron transport chain-mediated noncyclic electron flow using methylviologen as acceptor by polarographically
[40] = system: Spinacia oleracea; experiment: Inhibition of Spinacia oleracea (spinach) chloroplast electron transport chain-mediated DAD-induced cyclic phosphorylation up to 200 uM by polarographically in absence of DCMU in red light
[41] = system: Spinacia oleracea; experiment: Inhibition of Spinacia oleracea (spinach) chloroplast electron transport chain assessed as residual electron flow from water to ferricyanide up to 300 uM by polarographically relative to control
[42] = system: Spinacia oleracea; experiment: Inhibition of Spinacia oleracea (spinach) chloroplast electron transport chain assessed as residual activity of noncyclic electron flow using methylviologen as acceptor up to 300 uM by polarographically relative to control
[43] = system: Spinacia oleracea; experiment: Inhibition of Spinacia oleracea (spinach) chloroplast electron transport chain-mediated DAD-induced cyclic phosphorylation up to 200 uM by polarographically in absence of DCMU in white light
[44] = molecular target: Photosystem II protein D1 (Spinacia oleracea) (UniProt P69560); experiment: Inhibition of Spinacia oleracea (spinach) photosystem II assessed as light-induced re-reduction of Cyt-f at 200 uM added prior to illumination by dual wavelength spectrophotometer analysis

With `CC(C)N(C(=O)SC/C(Cl)=C/Cl)C(C)C` [Diallate] the inhibition [1] was “Active”, the Activity [2] was 105 µmol/h and the inhibition [3] was “inactive”. The inhibition [4] was “Active”, the Activity [5] was 40 µmol/h and the inhibition [6] was “Active”. The inhibition [7] was “Active”, the Activity [8] was 97 µmol/h and the inhibition [9] was “Active”. For the same molecule, the Activity [10] was 30 µmol/h, the IC50 [11] was 65 µM and the inhibition [12] was 52%. It also gave an inhibition [13] of 25%, an inhibition [14] of 48% and an inhibition [15] of 54%. The IC50 [16] was 100 µM, the IC50 [17] was 75 µM and the inhibition [18] was “Active”. The inhibition [19] was 66%, the inhibition [20] was 32% and the inhibition [21] was 8%. The inhibition [22] was “Active”, the inhibition [23] was “inactive” and the IC50 [24] was 20 µM. For the same molecule, the inhibition [25] was 20%, the IC50 [26] was 20 µM and the inhibition [27] was “Active”. The Activity [28] was 30 µmol/h, the inhibition [29] was 32% and the IC50 [30] was 25 µM. For the same molecule, the IC50 [31] was 20 µM, the IC50 [32] was 50 µM and the inhibition [33] was 8%.
For `CCCN(CCC)c1c([N+](=O)[O-])cc(C(F)(F)F)cc1[N+](=O)[O-]` [TRIFLURALIN], the inhibition [1] was “Active”, the Activity [2] was 62 µmol/h and the inhibition [3] was “inactive”. For the same molecule, the inhibition [4] was “Active”, the inhibition [6] was “Active” and the inhibition [7] was “Active”. For the same molecule, the Activity [8] was 64 µmol/h, the inhibition [34] was “Active” and the IC50 [11] was 90 µM. For the same molecule, the inhibition [12] was 16%, the inhibition [13] was 16% and the inhibition [14] was 28%. The inhibition [15] was 18%, the Activity [35] was 60 µmol/h and the inhibition [18] was “Active”. It also gave an inhibition [19] of 20%, an inhibition [20] of 24% and an inhibition [21] of 4%. It also gave an Imax [22] of 50%, an IC50 [24] of 10 µM and an inhibition [25] of 17%. For the same molecule, the inhibition [36] was “inactive”, the inhibition [37] was “inactive” and the IC50 [26] was 20 µM. The inhibition [38] was “inactive”, the IC50 [39] was 10 µM and the inhibition [40] was “Active”. The inhibition [27] was “Active”, the Activity [41] was 10% and the inhibition [29] was 6%. The Activity [42] was 10%, the inhibition [43] was “Active” and the IC50 [30] was 50 µM. The IC50 [31] was 20 µM, the inhibition [33] was 6% and the inhibition [44] was “Active”.

Source: ChEMBL document CHEMBL3046870, “Inhibition of chloroplast electron transport reactions by trifluralin and diallate” (Plant Physiol, 1977)
